Laboratory results from the METLIN SMRT retention time set (Domingo-Almenara et al. 2019).

Assay: gradient 5% acetonitrile 3 min, to 50% in 2 min, to 85% in 15 min, held 3 min, 100 µL/min
Settings: column: Zorbax Extend-C18 2.1 x 50 mm; eluents: water / acetonitrile, 0.1% formic acid
How it was run: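 Values are retention times taken from adduct peaks that software picked and an analyst inspected. The pure standards were run as mixtures of ~100 molecules on HPLC linked to a quadrupole time-of-flight mass spectrometer, in positive and negative ionization mode. A Zorbax Extend-C18 column (2.1 × 50 mm, 1.8 μm) was used at 100 μL/min with water and acetonitrile, each including 0.1% formic acid.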

RP-LC retention time [s]	SMILES
905	Cc1nn2c(CNS(=O)(=O)c3cc(F)cc(F)c3)c(-c3ccccc3)nc2s1
635	CCN(CC)CCNC(=O)c1c(C)oc2c1C(=O)c1ccccc1C2=O
998	CCc1nn2c(CNC(=O)c3cccc(Cl)c3)c(-c3ccccc3)nc2s1
866	CCOc1ccc(NC(=O)c2cnc3c(c2)c(=O)n(C)c(=O)n3-c2ccc(F)cc2)cc1
933	O=S(=O)(c1ccc(-c2nnc(C3CCCC3)o2)o1)N1CCCC1
1010	CCOc1ccc(-c2noc(CN3C(=O)COc4ccc(C)cc43)n2)cc1OC
1180	CCCCOc1ccc(C(=O)N2CCCC2c2nc(-c3ccc(OC)cc3)no2)cc1 (centres undefined)
1350	CC(C)c1ccc(S(=O)(=O)N2CCCC2c2nc(-c3cccc(Cl)c3)no2)cc1 (centres undefined)
707	CCCS(=O)(=O)N1CCCN(S(=O)(=O)c2ccccc2)CCC(=O)NCC1
734	COc1ccccc1NC(=O)Cc1csc2nc(-c3ccc(OC)c(OC)c3)cn12
562	O=S(=O)(NCC1CCN(Cc2cccs2)CC1)c1cc(F)ccc1F
830	O=C(Nc1nnc(C2CC(=O)N(c3ccc(F)cc3)C2)o1)c1ccc(C(F)(F)F)cc1 (centres undefined)
758	COc1cc(NC(=O)N2CCC(N3CCN(Cc4ccc(C)cc4)C(=O)C3=O)CC2)cc(OC)c1
1010	CCOC(=O)N1CCN(c2nc(F)c(F)c(S(=O)(=O)CCNc3ccccc3)c2F)CC1
538	Cc1ccnc(N2CCCC(C(=O)N3CCN(C)CC3)C2)n1 (centres undefined)
813	Cc1cc(N2CCCC2)nc(N2CCN(C(=O)c3ccc(-c4ccccc4)cc3)CC2)n1
563	COc1cc(N2C(=O)CC(N3CCC(C(N)=O)CC3)C2=O)cc(OC)c1OC (centres undefined)
719	COc1ccc(-c2nc3cnccn3c2NCc2ccccc2)cc1

RP-LC retention time [s]	SMILES
709	COCCOCc1nc(C2CCN(C(=O)NC3CCCCC3)CC2)no1
602	Cc1ccc(S(=O)(=O)N2CCC3(CC2)CCC(O)(CN2CCCC2)CC3)c(C)c1
763	O=C(c1ccoc1)N1CCC2(CC1)N=C(c1cccc(Br)c1)NO2
765	O=C(NCc1cccs1)c1ccc(-n2nc(N3CCCC3)ccc2=O)cc1
724	O=C(NCC1CCCO1)c1n[nH]c2c1CCCCCC2 (centres undefined)
914	Cc1ccc(NC(=O)COc2cc(C)nc(N3CCN(c4ccccc4)CC3)n2)c(C)c1
737	COc1ccc(NC(=O)c2cnc(N3CCN(c4ccccc4OC)CC3)nc2N)cc1
612	CCNC(=O)N1CCCC1c1nc(C2CCOCC2)no1 (centres undefined)
919	CCOC(=O)c1nc(N(CCC(=O)OC)c2ccccc2)c2ccccc2n1
963	CCC(C)(C)NC(=O)CN1C(=O)CCCc2cc(S(=O)(=O)N3CCC(C)CC3)ccc21
797	O=C(Cn1c(=O)c2cc(-c3ccco3)nn2c2ncccc21)NCCc1ccccc1
557	COCCN(Cc1ccncc1)C(=O)c1ccccc1SC
572	CC1CCN(c2cc(-c3noc(C(=O)NCCN4CCOCC4)n3)ccn2)CC1
868	CCn1c(=O)c(N2CCN(C(=O)Nc3ccc4c(c3)OCO4)CC2)nc2ccccc21
766	O=C(NC1CCN(c2ccccc2)C1=O)c1ccccc1Br (centres undefined)
747	Cc1cccc(C)c1NC(=O)CN1C(=O)NC(c2ccc(Cl)cc2)C2=C1COC2=O (centres undefined)
808	Cc1ccc(C(=O)N2CCc3ccc(CNC(=O)NC(C)C)cc32)cc1
890	O=C(c1cc(F)ccc1F)N1CCC2(CC1)NC(=O)N(Cc1ccc(Cl)cc1)C2=O

Further lines, the molecule ahead of its results:

SMILES	RP-LC retention time [s]
CCCN1C(=O)NC(=O)C2NCNC21 (centres undefined)	604
COc1cc(Cl)c(NC(=O)C2CCCN(c3nc4ccccc4nc3OC)C2)c(OC)c1 (centres undefined)	1250
COc1ccc(C(=O)N2C[C@@H]3C[C@H](NS(C)(=O)=O)[C@H]2C3)c(C)c1	629
CC(C)C(=O)Nc1ccc2nc(N3CCN(c4ccccc4F)CC3)cc(C(=O)O)c2c1	664
CCOc1ccc(-n2c(N3CCSCC3)nc3cc(C(=O)OC)ccc3c2=O)cc1	800
CC(=O)Nc1ccc(NC(=O)C2CCCN(c3ccc(=O)n(-c4ccc(C)c(Cl)c4)n3)C2)cc1 (centres undefined)	768
O=C(NOC[C@H](O)CO)c1ccc(F)c(F)c1Nc1ccc(I)cc1F	886
Cc1ccc(-n2nc(N3CCCN(S(=O)(=O)c4ccccc4C)CC3)ccc2=O)cc1	910
COc1ccccc1CNC1=NCCNC12CCN(S(=O)(=O)c1ccc(Cl)cc1)CC2	750
COc1ccc(OCC(=O)N2CCN(c3cc(=O)n(C(C)C)c(=O)n3C(C)C)CC2)cc1	846
Cc1ccccc1NS(=O)(=O)c1cc2n(c1)CCN(C(C)C)C2=O	758
Cc1cc(=O)n(CC(=O)NCc2ccccc2)c(N)n1	570
COc1ccc(Nc2c(-c3ccc(OC)c(OC)c3)nc3cnccn23)cc1	730
Cc1cccc(CN2C[C@@H]3C(=O)N(Cc4ccc5c(c4)OCO5)C(=O)[C@@H]3C2)c1	734
CN(Cc1ccccc1)S(=O)(=O)c1cc2c3c(c1)CCC(=O)N3CCC2	926
O=C(CC1CC1)N1CC(F)(F)C[C@H]1c1nnc(-c2ccccc2)o1	804
CC(C)n1c(=O)sc2cc(S(=O)(=O)N3CCC(C(=O)Nc4cccc(Cl)c4)CC3)ccc21	1060
CC(C)n1cnc2cc(CNC(=O)c3ccco3)ccc21	568
COc1ccc(CC(C)(O)CNC(=O)c2cccc(C(F)(F)F)c2)cc1 (centres undefined)	823
O=C(Nc1cccc(-c2nnc3n2CCCC3)c1)c1ccc2ccccc2n1	779
Cc1c(NC(=O)C2CCC2)c(=O)n(-c2ccccc2)n1C	596
O=C(CSc1nc2ncccc2[nH]1)N1CCN(c2ccc(F)cc2)CC1	649
CCCn1c(=O)c(C)nc2cc(-c3noc(/C=C/c4ccc(OC)c(OC)c4)n3)ccc21	735
CCn1ccc(C(=O)N2CCCN(C3=NS(=O)(=O)C(c4ccc(F)cc4)=C3C)CC2)n1	759
Cc1ccc2c(c1)N(CCCC(=O)Nc1ccc(C)c(C)c1)C(=O)CO2	922
CCCNC(=O)c1cn(CCC)nc1S(=O)(=O)N1CCN(c2ccccc2OCC)CC1	1080
N#Cc1cccc(S(=O)(=O)N2CCc3nc(-c4ccc(F)cc4)ncc3C2)c1	1030

SMILES	RP-LC retention time [s]
Cc1ccc2oc(C(=O)N3CCC(CCN4CCCCC4)CC3)cc(=O)c2c1	611
Cc1cccc(NC(=O)N2CCc3nc(-c4ccc(Cl)cc4)ncc3C2)c1	1080
CC(c1ccccc1)N1CC(=O)N(c2cccc(Cl)c2)[C@@H]2CS(=O)(=O)C[C@@H]21 (some centres undefined)	894
O=C(NCC1CCCO1)C1CCN(c2nccnc2Sc2ccccc2)CC1 (centres undefined)	796
CN(CCc1noc(COc2ccc(F)cc2)n1)C(=O)Nc1ccccc1Cl	962
O=C1COc2ccccc2N1Cc1nc(-c2cccc(F)c2)no1	990
CCNC(=O)N1CC=C(C(=O)Nc2ccccc2)CC1	658
CCCNC(=O)N1CCN(Cc2nc3cc(-c4ccccc4)ccc3o2)CC1	722
COCCC1CCN(C(=O)CCc2c(C)nn(C)c2C)CC1	616
CC1CCCCN1c1ccn2c(=O)n(CC(=O)Nc3cc(F)cc(F)c3)nc2n1 (centres undefined)	810
CC(C)c1cc(C(=O)Nc2ccccc2F)no1	1020
O=C([C@@H]1C[C@H](F)CN1S(=O)(=O)Cc1ccccc1)N1CCOCC1	692
O=C(NCc1ccccn1)C1CC(=O)N(c2n[nH]c3cc(Br)ccc23)C1 (centres undefined)	600
CN1C(=O)c2cc(S(=O)(=O)Nc3ccc(F)cc3)ccc2Oc2cccnc21	906
COc1ccc(-c2nc(-c3ccc4c(c3)nc(C)c(=O)n4C)no2)cc1OC	876
O=C(Nc1ccc(-c2nc3cccnc3s2)cc1)c1ccccc1Cl	893
COc1ccc(S(=O)(=O)N2CCc3nc(CNC(=O)C4CCC4)n(C)c3C2)cc1	628
Cc1ccc(Cn2nc(-c3nc(C(C)(C)C)no3)ccc2=O)cc1	1130
COc1ccc(Cc2nc(-c3ccc4oc(C)nc4c3)no2)cc1OC	892
COc1ccc(-c2noc(C3CCCN3C(=O)Nc3cc(C)ccc3C)n2)cc1 (centres undefined)	1020
CCOc1ccc(S(=O)(=O)N2CCC3(CC2)c2nccn2CCN3C)cc1	651
CCOCCCNC(=O)C1c2cc(OC)c(OC)cc2C(=O)N2CCc3ccccc3C12 (centres undefined)	718
CCc1noc(NC(C)=O)c1-c1ccc(C)c(S(=O)(=O)N2CCN(c3ccccc3)CC2)c1	964
COc1nn(C)cc1C(=O)Nc1ccc(C(=O)Nc2cccc(-c3csc(C)n3)c2)cc1	748
O=C(NCC1(c2cccs2)CC1)c1ccsc1	791
COc1cccc(CN2CC=C(C(=O)N3CCN(c4ccccc4)CC3)CC2)c1	664
